Assay: Human HepG2 cell viability assay in 384 well format
Type: toxicity, cell-based
Design: dose 125 nL, time 70.5 hour; cytotoxicity at 70.5 h: concentration not given beside the values
Details: HepG2 cells, read-out: Inhibition

CCSCCC(C)N(C)C(=O)c1cc(C)no1 (stereo not drawn) showed a cytotoxicity at 70.5 h of -2.61%.
Cc1nn(C)c2c(NCc3ccncc3)nc(C3CC3)nc12 showed a cytotoxicity at 70.5 h of 3.06%.
c1cc(C2CCN(C3CCCCC3)C2)n[nH]1 (stereo not drawn) showed a cytotoxicity at 70.5 h of 2%.
In the case of CC(C)CN1C(=O)C2(CCN(Cc3nccs3)C2)c2ccccc21 (stereo not drawn), the cytotoxicity at 70.5 h is reported as -1.93%.
In the case of Cc1cc(C(=O)N2CCC3(CC(=O)NC3=O)C2)c(-c2ccccc2)o1 (stereo not drawn), the cytotoxicity at 70.5 h is reported as 17.4%.
Cc1cc2c(cc1CN1CCCCC1CCn1ccnc1C)OCO2 (stereo not drawn) showed a cytotoxicity at 70.5 h of -1.13%.
For CC(=O)c1cccc(NC(=O)N2CCCCC2CN2CCCC2=O)c1 (stereo not drawn), the cytotoxicity at 70.5 h was -7.82%.
With COc1ncccc1CNC(=O)c1cccc(C)n1 the cytotoxicity at 70.5 h was 11.1%.
Cc1ncsc1C(=O)OCCN1CCCc2ccccc21 showed a cytotoxicity at 70.5 h of -22.3%.
Compound CSc1ccsc1C(=O)NS(=O)(=O)c1cccc(C#N)c1 has a cytotoxicity at 70.5 h of -13.1%.
For Cn1nccc1C1CCN(Cc2csc(-c3ncccn3)n2)CC1, the cytotoxicity at 70.5 h was -5.7%.
For O=C(c1cccnc1)N1CCOC(CCCc2ccccc2)C1 (stereo not drawn), the cytotoxicity at 70.5 h was 0.528%.
For Cc1ccc2cccc(S(=O)(=O)N(C)C3CCCN(C)C3)c2n1 (stereo not drawn), the cytotoxicity at 70.5 h was 0.353%.
Cc1noc(C)c1-c1cncc(C2CCCN2Cc2cncnc2)n1 (stereo not drawn) gave a cytotoxicity at 70.5 h of -20.4%.
With O=C1CNc2ncnc(N3CCN(c4ccccc4F)CC3)c2N1 the cytotoxicity at 70.5 h was 16.1%.
N#Cc1cccnc1N1CCN(C(=O)c2cccs2)CC1 showed a cytotoxicity at 70.5 h of -3%.
With Cc1cc(CNC(=O)C2CCC(=O)N(Cc3ccccc3F)C2)on1 (stereo not drawn) the cytotoxicity at 70.5 h was -2.07%.
Work on Cn1cc(N2CCC3(CCN(C(=O)c4cccn4C)C3)C2=O)cn1 (stereo not drawn) yielded a cytotoxicity at 70.5 h of -6.34%.
CN(Cc1ncc[nH]1)C(=O)C(C)(C)NC(=O)c1cccs1 showed a cytotoxicity at 70.5 h of -3.2%.
With O=C(c1cocn1)N1CCC2(CC1)CC(Oc1ccccn1)CO2 (stereo not drawn) the cytotoxicity at 70.5 h was -8.48%.
In the case of COCCNc1ccc(CNCc2cnc3nc(C)cc(C)n23)cc1, the cytotoxicity at 70.5 h is reported as -9.55%.
Compound CC(=O)N1CCN(C[C@H]2CC[C@@H](Cc3ccc4ncccc4c3)O2)CC1 has a cytotoxicity at 70.5 h of -10.6%.
In the case of O=C(c1ccc2c(c1)OCCCO2)N1CCCC(n2ccnc2)C1 (stereo not drawn), the cytotoxicity at 70.5 h is reported as -8.38%.
CCCc1nnc(N2CC[C@@](O)(C3CCOCC3)[C@H](C)C2)s1 gave a cytotoxicity at 70.5 h of 3.18%.
With CN(C)S(=O)(=O)N1CCC2(CC1)CC(Oc1ccccn1)CO2 (stereo not drawn) the cytotoxicity at 70.5 h was 0.296%.
CCOCCNCC1CCN(CCO)CC1 gave a cytotoxicity at 70.5 h of -3.07%.
O=C(NC1CCCC1)c1nc2c(o1)CN(C(=O)CCO)C2 gave a cytotoxicity at 70.5 h of -4.91%.
In the case of CN(CCCOc1ccccc1Cl)C(=O)CN1C(=O)CCNC1=O, the cytotoxicity at 70.5 h is reported as -3.2%.
In the case of Nc1cc2c(nn1)CCN(C(=O)Cc1ccc3c(c1)CCCC3)C2, the cytotoxicity at 70.5 h is reported as -2.05%.
Compound CC(=O)N1CCCC2(CCN(C(=O)c3nn(C)c4ccccc34)CC2)C1 has a cytotoxicity at 70.5 h of 29.2%.
Cn1ccnc1-c1cn(Cc2cn3c(n2)SCC3)nn1 gave a cytotoxicity at 70.5 h of -5.95%.
Compound Cc1noc(C2CCCN2C(=O)C2CCC2)n1 (stereo not drawn) has a cytotoxicity at 70.5 h of -11.5%.
In the case of CN1CCCC1CNC(=O)CCCOc1cccc(F)c1 (stereo not drawn), the cytotoxicity at 70.5 h is reported as 5.1%.
Compound Cc1sc2ncnc(N3CCCC3Cn3cccn3)c2c1C (stereo not drawn) has a cytotoxicity at 70.5 h of -11.4%.
In the case of CC(C)N(C)Cc1n[nH]c2c1CCN(C(=O)c1ccc[nH]1)C2, the cytotoxicity at 70.5 h is reported as 21%.
Compound COc1nc2ccn(CCc3cnccn3)c(=O)c2cc1C#N has a cytotoxicity at 70.5 h of 40.2%.
In the case of CC(C)CC(NC(=O)c1ccc[nH]1)C(=O)N1CCC(CO)CC1 (stereo not drawn), the cytotoxicity at 70.5 h is reported as -11.2%.
CCc1cnc(C)nc1N(C)CCCc1cnn(C)c1 gave a cytotoxicity at 70.5 h of -12.1%.
In the case of CCOCC1CN(C(=O)N(C)C)Cc2nnn(CC3CC3)c21 (stereo not drawn), the cytotoxicity at 70.5 h is reported as 4.98%.
In the case of Cn1cc(-c2cnc(N3CCCC3)nc2)cc1C(=O)N1CCOCC1, the cytotoxicity at 70.5 h is reported as -27.4%.
For COc1cc2c(cc1OC)CN(C(=O)NCC1CCCO1)CC2 (stereo not drawn), the cytotoxicity at 70.5 h was -3.43%.
Cc1cc(C)cc(NC(=O)Cc2c(C)nc3c(c2C)c(=O)[nH]n3C)c1 gave a cytotoxicity at 70.5 h of -0.0448%.
With O=C(c1n[nH]c2c1CCC2)N1CCCC1c1nc(-c2ccccc2)no1 (stereo not drawn) the cytotoxicity at 70.5 h was -1.83%.
For Cc1noc(C2(C)CCCN(C(=O)c3cccnc3)C2)n1 (stereo not drawn), the cytotoxicity at 70.5 h was 11.1%.
CCNC(=O)NC1CCN(c2ccc(S(=O)(=O)CC)cc2)CC1 showed a cytotoxicity at 70.5 h of 0.434%.
Work on CC(O)(CCc1ccccc1)CNC(=O)c1ccc(F)cc1 (stereo not drawn) yielded a cytotoxicity at 70.5 h of 14.3%.
Compound Cc1noc(C)c1CN1Cc2ccnn2CC(C(=O)NCC2CC2)C1 (stereo not drawn) has a cytotoxicity at 70.5 h of -6.51%.
CS(=O)(=O)N1CCC(Cc2cnc(Br)cn2)C1 (stereo not drawn) showed a cytotoxicity at 70.5 h of 45.3%.
COCCN1CCC(NCc2ccc(F)cc2F)C1 (stereo not drawn) gave a cytotoxicity at 70.5 h of 5.5%.
For Cn1ccnc1CCC1CCCCN1Cc1cnc(N2CCCC2)nc1 (stereo not drawn), the cytotoxicity at 70.5 h was 22.9%.
Work on O=C(c1ccc(F)cc1)N(CCCO)S(=O)(=O)c1cccs1 yielded a cytotoxicity at 70.5 h of -16.3%.
O=C(c1cc[nH]n1)N1CCOCC2(C1)CN(c1ccccc1)C(=O)CO2 (stereo not drawn) gave a cytotoxicity at 70.5 h of -12.1%.
For Clc1ccc(CNc2ccc(Cl)cn2)cc1, the cytotoxicity at 70.5 h was -9.29%.
Compound N#Cc1cccc(CN2Cc3nccn3CC(CN3CCCC3)C2)c1 (stereo not drawn) has a cytotoxicity at 70.5 h of 0.61%.
COc1ccc(-n2ccnc2-c2cnc(C(C)C)nc2)cc1C(=O)O showed a cytotoxicity at 70.5 h of -3.39%.
In the case of C1CCC(NC2CCCN(Cc3noc(C4CC4)n3)C2)C1 (stereo not drawn), the cytotoxicity at 70.5 h is reported as -15.1%.
In the case of CC(=O)N1CCCC1C(=O)NCCOc1cc(C)cc(C)c1 (stereo not drawn), the cytotoxicity at 70.5 h is reported as -30.3%.
For CSC(C)C(=O)N1CCCN(Cc2cscn2)CC1 (stereo not drawn), the cytotoxicity at 70.5 h was 17.9%.

Source: ChEMBL document CHEMBL3507680, “University of Dundee, Gates Library screen for HepG2 cell viability”
